One series concerns K. pneumoniae MKP103. In words: MIC assay with or without SPR741, K. pneumoniae. It counts as cell-based, Klebsiella pneumoniae. To be noted: for MIC: Klebsiella pneumoniae. As to the method: (§1) We next sought to determine whether we could achieve growth inhibition of wild-type E. coli using MAC-0452936 and an antibiotic adjuvant. […] To that end, we determined the MIC of MAC-0452936 against wild-type E. coli in the presence and absence of a sub-MIC concentration of SPR741 (Figure S8B). […] We leveraged this combination to characterize the spectrum of activity of MAC-0452936 against a panel of Gram-negative pathogens (Table 2). In the presence of 8 μg/mL SPR741, we observed MAC-0452936 activity against the clinical E. coli isolates C0244 and CFT073 at 2 μg/mL as well as against Salmonella Typhimurium SL1344 at 4 μg/mL.
(§2) For MIC assays, cultures of bacteria were grown in LB broth. Overnight cultures were diluted (1:100) into fresh LB media and grown to the mid-log phase of growth (OD600 ∼0.5). Subcultures were then normalized to an OD600 of 0.1, and diluted (1:5000) into assay media. Assay plates were then incubated for 18 h at 37°C, then OD600 was measured using a Biotek Neo plate reader.

The subject of another series is A. baumannii ATCC17978. In words: MIC assay with or without SPR741, A. baumannii. The settings on record: for MIC: Acinetobacter baumannii. It counts as cell-based, Acinetobacter baumannii. The protocol:
as §1, §2

Another series relates to E. coli ΔtolC-pore. In words: MIC assay, E. coli ΔtolC-pore. Format: cell-based. As to the method:
as §2

The subject of a further series is HEK293t cells. In words: In vitro cytotoxicity (PrestoBlue cell viability). It counts as cell-based, human. The settings on record: 24 h. As to the method:
To determine the haemolytic activity and cytotoxicity of MAC-0452936, pooled human blood and HEK293t cells were used, respectively. Fresh pooled human blood for haemolytic assay was acquired from […] Technologies, whilst, HEK293t cells were originally acquired from ATCC (Cat# CRL-3216) and were regularly grown in […] (DMEM) with 10% fetal bovine serum (FBS), L-glutamine and incubated at 37°C. Cell lines are regularly tested for mycoplasma contamination.
The cytotoxicity of MAC-0452936 on HEK293t cells was determined by performing a cell viability assay using PrestoBlue Cell Viability Reagent (Invitrogen). 3 × 10^4 cells/mL were seeded in tissue culture-treated 96-well plates (Nunc; white opaque with clear bottom) in […] (DMEM) with 10% fetal bovine serum (FBS), L-glutamine and incubated at 37°C for 24 h in 5% CO2. The cells were then treated with varying concentrations of MAC-0452936 and similar percentage of DMSO as in drug (solvent control) for 24 h at 37°C. PrestoBlue reagent (20 μL) was added to the wells and incubated for 1 h in the CO2 incubator before reading the plates at excitation/emission wavelength of 560/590 nm on the Biotek Synergy Neo2 plate reader. Fluorescence values were expressed as percentage and inhibition with respect to solvent control was calculated.

Another series concerns K. aerogenes CO045. Description: MIC assay with or without SPR741, K. aerogenes. To be noted: for MIC: Klebsiella aerogenes. Format: cell-based, Klebsiella aerogenes. The protocol: as §1, §2
The test system of another series is S. Typhimurium SL1344. In words: MIC assay with or without SPR741, S. Typhimurium. It counts as cell-based. The settings on record: Salmonella enterica. The protocol:
as §1, §2

Series [1] deals with E. coli ΔtolC-pore harboring pPromrcsA-GFP-mobile. In words: Secondary screen of bioactive small molecules for rcsA bioreporter induction (agar diffusion). Format: cell-based. To be noted: 100 nL of 10 mM stock spotted on MOPS minimal agar, visual analysis. An excerpt:
To identify small molecules that act on the Gram-negative cell envelope, a set of 797 bioactive compounds that were previously identified to be antibacterial against efflux-deficient hyper-permeable E. coli (E. coli ΔtolC-pore) was screened to determine those that can induce the rcsA bioreporter on MOPS minimal medium. E. coli ΔtolC-pore is deficient in TolC-mediated drug efflux and expresses an outer-membrane pore encoded by fhuA,[46]^,[47] thereby allowing the capture of additional antibacterial chemical scaffolds that would normally be subject to efflux or are unable to traverse the E. coli outer membrane. As the compounds in the bioactive compound collection were all antibacterial at varying inhibitory concentrations, we conducted this secondary screen using a modified solid agar diffusion assay. This enabled testing of these antibacterial small molecules at a range of concentrations, which is often required to assess bioreporter induction. To that end, 100 nL aliquots of compounds from screening library plates were deposited onto discrete positions on MOPS agar impregnated with E. coli ΔtolC-pore harboring the reporter (Figure 3A). Compounds that induced reporter expression were determined through visual analysis of the screening plates following overnight growth by looking for signature green “halos” proximal to the zones of inhibition (Figure S4). […]
Background: In agar diffusion tests the substance spreads into inoculated agar from a disc or well.

The test system of series [2] is E. coli ΔtolC-pore harboring the lgt expression plasmid pCHAP9231. In words: Ectopic lgt expression MIC (high-copy suppression, pCHAP9231). To be noted: pCHAP9231, 0.4% arabinose, LB. It counts as cell-based.
For a further series, the system named is E. coli CO244. Description: MIC assay with or without SPR741, E. coli CO244. The settings on record: Escherichia coli. Format: cell-based. As to the method:
as §1, §2

For a further series, the system named is S. aureus MRSA JE2. Description: MIC assay with or without SPR741, S. aureus. To be noted: for MIC: Staphylococcus aureus, MRSA. Format: cell-based, Staphylococcus aureus. The protocol:
as §1, §2

The subject of series [3] is E. coli and the Gram-positive organisms Staphylococcus aureus and Bacillus subtilis. In words: Growth inhibition in dose of E. coli and Gram-positive organisms. It counts as cell-based. To be noted: tested in dose against E. coli, S. aureus and B. subtilis. As to the method: Of these 24 compounds, six were prioritized for further follow-up based on structural novelty relative to known antibacterial scaffolds and were tested in dose for growth inhibition of E. coli and the Gram-positive organisms Staphylococcus aureus and Bacillus subtilis (Figure S5). We hypothesized that compounds active against E. coli, but not the Gram-positive organisms, might target processes involved in the Gram-negative outer-membrane synthesis, many of which were identified as possible targets in our genetic screen. Importantly, these processes are either absent or not essential for growth in Gram-positive organisms, offering promise for narrow-spectrum applications.
as §2

Values after ≈ are worked out from the molar mass of the structure shown. Like-named read-outs stand apart in the source and are kept apart here.

With `COc1ccc(C(=O)O/N=C(\c2cccs2)C(C)(C)C)cc1` [MAC-0452936, (Z)-2-Pivaloylthiophene O-(4-methoxybenzoyl) oxime], the “MIC, K. pneumoniae MKP103 + 8 μg/mL SPR741” value with K. pneumoniae MKP103 (8 μg/mL SPR741) is “did not observe MAC-0452936 activity”. Besides, the MIC in the series on K. pneumoniae MKP103 (MKP103, read-out: MIC, K. pneumoniae MKP103 + 0 μg/mL SPR741) is above 64 µg/mL; in the series with K. pneumoniae MKP103 (MKP103, read-out: MIC, K. pneumoniae MKP103 + 8 μg/mL SPR741), above 64 µg/mL; with A. baumannii ATCC17978 (ATCC17978, read-out: MIC, A. baumannii ATCC17978 + 8 μg/mL SPR741) it was above 64 µg/mL; in the series with A. baumannii ATCC17978 (ATCC17978, read-out: MIC, A. baumannii ATCC17978 + 0 μg/mL SPR741), above 64 µg/mL; with K. aerogenes CO045 (CO045, read-out: MIC, K. aerogenes CO045 + 8 μg/mL SPR741), above 64 µg/mL; in the series with K. aerogenes CO045 (CO045, read-out: MIC, K. aerogenes CO045 + 0 μg/mL SPR741) it was above 64 µg/mL. For the same molecule, the MIC with S. Typhimurium SL1344 (read-out: MIC, S. Typhimurium SL1344 + 0 μg/mL SPR741) was above 64 µg/mL; with S. Typhimurium SL1344 (read-out: MIC, S. Typhimurium SL1344 + 8 μg/mL SPR741), 4 µg/mL; with E. coli CO244 (CO244, read-out: MIC, E. coli CO244 + 8 μg/mL SPR741) it was 2 µg/mL; with E. coli CO244 (CO244, read-out: MIC, E. coli CO244 + 0 μg/mL SPR741), above 64 µg/mL; with S. aureus MRSA JE2 (read-out: MIC, S. aureus MRSA JE2 + 0 μg/mL SPR741) it was above 64 µg/mL; in the series on S. aureus MRSA JE2 (read-out: MIC, S. aureus MRSA JE2 + 8 μg/mL SPR741) it was above 64 µg/mL. The “MIC, A. baumannii ATCC17978 + 8 μg/mL SPR741” value in the series with A. baumannii ATCC17978 (8 μg/mL SPR741) is recorded as “did not observe MAC-0452936 activity”. Besides, the “MIC, E. coli ΔtolC-pore” value in the series on E. coli ΔtolC-pore (LB, 18 h) was 0.5 µg/mL (≈ 1.58 µM). Besides, the “activity against E. coli ΔtolC-pore” value in the series with E. coli ΔtolC-pore (growth inhibition, in words) is on record as “active”. The “concentrations giving a modest decrease in the viability of HEK-293 cells” value in the series on HEK293t cells is listed as “greater than 8 μg/mL”. Besides, in the series on HEK293t cells (at MIC concentrations), the “cytotoxicity to HEK-293 cells” value was “did not observe”. Moreover, the “MIC, K. aerogenes CO045 + 8 μg/mL SPR741” value in the series on K. aerogenes CO045 (8 μg/mL SPR741) is “did not observe MAC-0452936 activity”. Besides, the “rcsA bioreporter (GFP) induction in secondary screen” value in [1] is given as “induced pPromrcsA-GFP”. In addition, the “suppression of activity by induction of lgt expression with arabinose” value in series [2] is listed as “about 8 fold”. Moreover, the “MIC, S. aureus MRSA JE2 + 8 μg/mL SPR741” value with S. aureus MRSA JE2 (8 μg/mL SPR741) is “did not observe MAC-0452936 activity”. The “spectrum of growth inhibition, E. coli versus Gram-positive organisms” value in series [3] is reported as “specifically inhibit E. coli”.

Values taken from publication PMC11456916, “A screen for cell envelope stress uncovers an inhibitor of prolipoprotein diacylglyceryl transferase, Lgt, in Escherichiacoli” (iScience, 2024).
